# Source: patent US20260325487A1 (BS BIOTECHNA SPOLKA AKCYJNA, priority 2023, published 2026)
# Where two headings read alike, the source gives them in different places.
# Assays:
# NCI-H1299 = experiment: SRB anti-proliferative assay, NCI-H1299, with CalcuSyn combination index (Example 1); assay type: cell-based; conditions: Homo sapiens, NCI-H1299, 72 h, read-out: Zah. (inhibition of proliferation)
# Experimental: (§1) Cells were thawed from ampoules stored in liquid nitrogen and cultured in petri dishes in appropriate culture medium according to Table 2, in a humidified 5% CO2 atmosphere at 37° C. Cells were passaged twice weekly using EDTA-Trypsin solution, pH 8. Counted cells with a viability of at least 90% as assessed with Trypan-Blue solution were used for anti-proliferative assays.
# (§2) Twenty-four hours before the addition of the test compounds/combinations, cells were seeded into 384-well plates at 50 μL/well and a density of 10^3 cells/well, in the appropriate culture medium.
# (§3) Solutions of the compounds were diluted in the test medium-RPMI-1640 and Opti-MEM in a 1:1 ratio, and the medium was supplemented with 2 mM glutamine and 5% fetal bovine serum FBS. After 72 h, colourimetric assessment of cell growth was performed by SRB. […] Unbound dye was removed by washing the plates (4×) in 1% (v/v) acetic acid, and protein-bound dye was extracted with 10 mM unbuffered Tris base and the optical density (A=540 nm) was determined in a BioTek Synergy H4 Hybrid computer microplate reader (BioTek Instruments USA). The entire washing/staining procedure was performed using a BioTek EL406 washing station (BioTek Instruments USA). The raw absorbance results were analysed in Microsoft Excel software using the formula:
# (§4) [formula] • Where: • % Zahlnh-inhibition of proliferation • Am—absorbance of wells without cells (medium) • Ak—absorbance of control wells (cells treated with pure culture medium) • Ap—absorbance of wells treated with compounds
# (§5) Each compound at the indicated concentrations was tested in triplicate in one experiment. Each experiment was repeated three times. Data analysis was supplemented with synergy assessment using CalcuSyn software. […] A CI value below 0.8 indicates synergism, 0.8-1.2 an additive effect, above 1.2 an antagonism.
# LN229 = experiment: SRB anti-proliferative assay, LN229, molecular combination and nanoparticles, with combination index (Example III); assay type: cell-based; conditions: Homo sapiens
# Experimental: (§6) Cells were thawed from ampoules stored in liquid nitrogen and cultured in petri dishes in the appropriate culture medium according to Table 16, in a humidified 5% CO2 atmosphere at 37° C. Cells were passaged twice weekly using EDTA-Trypsin solution, pH 8, as a separating agent. Counted cells with a viability of at least 90% as assessed with Trypan-Blue solution were used for anti-proliferation assays.
# (§7) Twenty-four hours before the addition of the test compounds/combinations, cells were seeded into 384-well plates at 50 μL/well and a density of 10^3 cells/well, in the appropriate culture medium. […] Solutions of the compounds were diluted in the test medium—RPMI-1640 and Opti-MEM in a 1:1 ratio, and the medium was supplemented with 2 mM glutamine and 5% fetal bovine serum FBS.
# as §3, with “After” for “Solutions of the compounds were diluted in the test medium-RPMI-1640 and Opti-MEM in a 1:1 ratio, and the medium was supplemented with 2 mM glutamine and 5% fetal bovine serum FBS. After”
# as §4, §5
# A375 = experiment: SRB anti-proliferative assay, A375, with CalcuSyn combination index (Example 1); assay type: cell-based; conditions: Homo sapiens, A-375, 72 h, read-out: Zah. (inhibition of proliferation)
# Experimental: as §1, §2, §3, §4, §5
# BxPC3 = experiment: SRB anti-proliferative assay, BxPC3, with CalcuSyn combination index (Example 1); assay type: cell-based; conditions: Homo sapiens, BXPC-3, 72 h, read-out: Zah. (inhibition of proliferation)
# Experimental: as §1, §2, §3, §4, §5
# 8 cell lines = experiment: SRB anti-proliferative assay, summary over the panel of 8 cell lines (Example III); assay type: cell-based, human; conditions: CI analysis not possible
# Experimental: as §6, §7
# Unbound dye was removed by washing the plates (4×) in 1% (v/v) acetic acid, and protein-bound dye was extracted with 10 mM unbuffered Tris base and the optical density (A=540 nm) was determined in a BioTek Synergy H4 Hybrid computer microplate reader (BioTek Instruments USA). […] The raw absorbance results were analysed in Microsoft Excel software using the formula:
# [formula] • Where: • % Zahlnh-inhibition of proliferation • Am—absorbance of wells without cells (medium) • Ak—absorbance of control wells (cells treated with pure culture medium) • Ap—absorbance of wells treated with compounds […]
# NCI-H520 = experiment: SRB anti-proliferative assay, NCI-H520, with CalcuSyn combination index (Example 1); assay type: cell-based; conditions: Homo sapiens, NCI-H520, 72 h, read-out: Zah. (inhibition of proliferation)
# Experimental: as §1, §2, §3, §4, §5
# LUDLU-1 = experiment: SRB anti-proliferative assay, LUDLU-1, with CalcuSyn combination index (Example 1); assay type: cell-based; conditions: Homo sapiens, LUDLU-1, 72 h, read-out: Zah. (inhibition of proliferation)
# Experimental: as §1, §2, §3, §4, §5
# SKMES-1 = experiment: SRB anti-proliferative assay, SKMES-1, molecular combination and nanoparticles, with combination index (Example III); assay type: cell-based; conditions: Homo sapiens, SK-MES-1, read-out: Inhibition of cell proliferation (Zah.)
# Experimental: as §6, §7
# as §3, with “After” for “Solutions of the compounds were diluted in the test medium-RPMI-1640 and Opti-MEM in a 1:1 ratio, and the medium was supplemented with 2 mM glutamine and 5% fetal bovine serum FBS. After”
# as §4, §5
# [1] = LN-229, 72 h, read-out: Zah. (inhibition of proliferation)
# [2] = LN-229, read-out: Zah. (inhibition of cell proliferation)
smiles,measurement,setting,value
"C=CCNC1=C2C[C@@H](C)C[C@H](OC)[C@H](O)[C@@H](C)/C=C(\C)[C@H](OC(N)=O)[C@@H](OC)/C=C\C=C(/C)C(=O)NC(=CC1=O)C2=O [17AAG, 17-AAG (tanespimycin)]",inhibition at 0.0031 µM,NCI-H1299,5.1%
same,inhibition at 0.01 µM,NCI-H1299,10.5%
same,inhibition at 0.0314 µM,NCI-H1299,43.4%
same,inhibition at 0.1 µM,NCI-H1299,80.8%
same,inhibition at 0.3155 µM,NCI-H1299,93.4%
same,inhibition at 1 µM,NCI-H1299,96.9%
same,inhibition at 3.1546 µM,NCI-H1299,96.8%
same,inhibition at 10 µM,NCI-H1299,95.3%
same,inhibition at 0.0032 µM,LN229; [1],3.3%
same,inhibition at 0.01 µM,LN229; [1],3.1%
same,inhibition at 0.0316 µM,LN229; [1],18.4%
same,inhibition at 0.1 µM,LN229; [1],28.9%
same,inhibition at 0.3163 µM,LN229; [1],38.7%
same,inhibition at 1 µM,LN229; [1],62.9%
same,inhibition at 3.1625 µM,LN229; [1],71.6%
same,inhibition at 10.0005 µM,LN229; [1],81.5%
same,inhibition at 0.0032 µM,LN229; [2],3.3%
same,inhibition at 0.01 µM,LN229; [2],3.1%
same,inhibition at 0.0316 µM,LN229; [2],18.4%
same,inhibition at 0.1 µM,LN229; [2],28.9%
same,inhibition at 0.3163 µM,LN229; [2],38.7%
same,inhibition at 1 µM,LN229; [2],62.9%
same,inhibition at 3.1625 µM,LN229; [2],71.6%
same,inhibition at 10.0005 µM,LN229; [2],81.5%
same,inhibition at 0.0031 µM,A375,24.1%
same,inhibition at 0.01 µM,A375,53.3%
same,inhibition at 0.0314 µM,A375,83.2%
same,inhibition at 0.1 µM,A375,89.2%
same,inhibition at 0.3155 µM,A375,91.6%
same,inhibition at 1 µM,A375,96.3%
same,inhibition at 3.1546 µM,A375,97.1%
same,inhibition at 10 µM,A375,97%
same,inhibition at 0.0031 µM,BxPC3,1.7%
same,inhibition at 0.01 µM,BxPC3,2.7%
same,inhibition at 0.0314 µM,BxPC3,24.4%
same,inhibition at 0.1 µM,BxPC3,54.7%
same,inhibition at 0.3155 µM,BxPC3,75.9%
same,inhibition at 1 µM,BxPC3,89.4%
same,inhibition at 3.1546 µM,BxPC3,95.3%
same,inhibition at 10 µM,BxPC3,95.2%
same,17-AAG activity,8 cell lines,low
same,inhibition at 0.0031 µM,NCI-H520,5.9%
same,inhibition at 0.01 µM,NCI-H520,15.3%
same,inhibition at 0.03 µM,NCI-H520,28.3%
same,inhibition at 0.1 µM,NCI-H520,48.1%
same,inhibition at 0.3124 µM,NCI-H520,56.8%
same,inhibition at 1 µM,NCI-H520,59.9%
same,inhibition at 3.1392 µM,NCI-H520,63.5%
same,inhibition at 10 µM,NCI-H520,65.8%
same,inhibition at 0.0031 µM,LUDLU-1,6.1%
same,inhibition at 0.01 µM,LUDLU-1,20.4%
same,inhibition at 0.0314 µM,LUDLU-1,47.8%
same,inhibition at 0.1 µM,LUDLU-1,66.9%
same,inhibition at 0.3139 µM,LUDLU-1,74.1%
same,inhibition at 1 µM,LUDLU-1,78.6%
same,inhibition at 3.1546 µM,LUDLU-1,83.3%
same,inhibition at 10 µM,LUDLU-1,86.3%
same,inhibition at 0.0003163 µM,SKMES-1,2.2%
same,inhibition at 0.001 µM,SKMES-1,46.7%
same,inhibition at 0.0032 µM,SKMES-1,86.7%
same,inhibition at 0.01 µM,SKMES-1,90.6%
same,inhibition at 0.0316 µM,SKMES-1,85.1%
same,inhibition at 0.1 µM,SKMES-1,87.9%
same,inhibition at 0.3163 µM,SKMES-1,89.3%
same,inhibition at 1 µM,SKMES-1,89.1%
